Assay results: ChEMBL document CHEMBL1201862, “PubChem BioAssay data set” (2004)
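Values below derive from 48-hour exposures of cells grown in 96-well plates, with endpoints linearly interpolated between the two concentrations bracketing the appropriate inhibition level. GI50 = concentration required for 50% inhibition of growth.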 Activity calls are given as the source filed them. No stated cut-off is given here; in the data, active = GI50 up to about 1.1 µM and inactive = higher.

Legend:
Assay in all cases: NCI-60 cell line screen, 48 h
UO-31 = tested on: UO-31
SK-MEL-28 = tested on: SK-MEL-28
MOLT-4 = tested on: MOLT-4
SK-MEL-2 = tested on: SK-MEL-2
K562 = tested on: K562
CCRF-CEM = tested on: CCRF-CEM
HOP-62 = tested on: HOP-62
A498 = tested on: A498
EKVX = tested on: EKVX
Malme-3M = tested on: Malme-3M
SNB-75 = tested on: SNB-75
SR = tested on: SR
RXF 393 = tested on: RXF 393
CAKI-1 = tested on: CAKI-1
NCI-H226 = tested on: NCI-H226

Measured: GI50

CCOC(=O)/C(=C/c1cc(OC)ccc1OC)CC(=O)O
inactive: UO-31 > 100 µM | SK-MEL-28 > 100 µM | MOLT-4 > 25.7 µM | SK-MEL-2 19.5 µM | K562 > 31.6 µM | CCRF-CEM > 31.6 µM | HOP-62 > 10 µM | A498 > 100 µM | EKVX > 100 µM | Malme-3M > 31.6 µM | SNB-75 > 100 µM | SR > 100 µM | RXF 393 > 100 µM | CAKI-1 > 100 µM

N#CC(=C1C=CC(=NO)C=C1)c1ccc(Cl)cc1
inactive: UO-31 11.5 µM | SK-MEL-28 15.7 µM | MOLT-4 5.74 µM | SK-MEL-2 4.36 µM | K562 3.78 µM | CCRF-CEM 2.69 µM | HOP-62 15.3 µM | A498 67.3 µM | Malme-3M 21.8 µM | SNB-75 24.3 µM | SR 4.83 µM | RXF 393 16 µM | CAKI-1 15.1 µM

CC(=O)O[C@]12CCCCC1C1(O)C(O)CCCCC12 (stereo partly specified)
inactive: UO-31 > 100 µM | NCI-H226 > 100 µM | SK-MEL-28 > 100 µM | MOLT-4 > 100 µM | SK-MEL-2 > 100 µM | K562 > 100 µM | CCRF-CEM > 100 µM | HOP-62 > 100 µM | EKVX > 100 µM | Malme-3M > 100 µM | SNB-75 > 100 µM | SR > 100 µM | RXF 393 > 100 µM

C=C(COC(C)=O)CC(OC(C)=O)c1ccccc1 (stereo unspecified)
inactive: UO-31 > 100 µM | NCI-H226 > 100 µM | SK-MEL-28 > 100 µM | MOLT-4 52.2 µM | SK-MEL-2 > 100 µM | K562 > 100 µM | CCRF-CEM 68.4 µM | HOP-62 > 100 µM | A498 > 100 µM | EKVX > 100 µM | SNB-75 > 100 µM | RXF 393 > 100 µM

COc1cc(/C=N/N=C(\N)NO)c(Cl)cc1O
inactive: UO-31 94 µM | NCI-H226 81.5 µM | SK-MEL-28 38.5 µM | MOLT-4 > 100 µM | SK-MEL-2 71.6 µM | K562 83.2 µM | CCRF-CEM > 100 µM | A498 99.8 µM | EKVX 43.8 µM | Malme-3M 68.7 µM | RXF 393 81.5 µM | CAKI-1 78 µM

COc1cc(C2C(Cl)C(=O)N2n2cnc3ccccc3c2=O)ccc1O (stereo unspecified)
inactive: UO-31 56.4 µM | NCI-H226 > 100 µM | SK-MEL-28 88.7 µM | MOLT-4 > 100 µM | SK-MEL-2 > 100 µM | CCRF-CEM 80 µM | HOP-62 > 100 µM | EKVX > 100 µM | Malme-3M > 100 µM | SNB-75 26.1 µM | SR 83.6 µM | RXF 393 67.6 µM | CAKI-1 70.6 µM

Cc1cc(C)cc(NC(=O)CCC(=O)C2CCC/C2=N\NC(=O)C(=O)NN)c1 (stereo unspecified)
inactive: UO-31 > 100 µM | NCI-H226 > 100 µM | SK-MEL-28 > 100 µM | MOLT-4 > 100 µM | SK-MEL-2 > 100 µM | K562 > 100 µM | CCRF-CEM > 100 µM | A498 > 100 µM | EKVX > 100 µM | Malme-3M > 100 µM | SNB-75 > 100 µM | RXF 393 > 100 µM | CAKI-1 > 100 µM

C/C(=C\Cc1cc(O)ccc1O)CCc1c(C)cc(O)c(C=O)c1C [PANICEIN B3]
inactive: UO-31 23.5 µM | NCI-H226 22.5 µM | SK-MEL-28 24 µM | MOLT-4 > 100 µM | SK-MEL-2 23 µM | K562 > 100 µM | A498 40.3 µM | EKVX 31.1 µM | Malme-3M 21.3 µM | SNB-75 13.9 µM | SR 28.4 µM | RXF 393 15.9 µM | CAKI-1 22.4 µM

CC1=C(/C=C/C2=CC(=C\C(=O)O)/CC(C3=C(C)CCCC3(C)C)C2)C(C)(C)CCC1 (stereo unspecified)
inactive: UO-31 10.7 µM | NCI-H226 11.2 µM | SK-MEL-28 16 µM | MOLT-4 3.01 µM | SK-MEL-2 11.3 µM | HOP-62 14 µM | A498 15.2 µM | EKVX 11.3 µM | Malme-3M 18.7 µM | SNB-75 14.6 µM | SR 5.65 µM | RXF 393 10.8 µM | CAKI-1 15.9 µM

Cc1ccc(S(=O)(=O)c2ccc(C)cc2[N+](=O)[O-])c([N+](=O)[O-])c1
inactive: UO-31 > 100 µM | NCI-H226 > 100 µM | SK-MEL-28 > 100 µM | MOLT-4 > 10 µM | SK-MEL-2 > 100 µM | K562 > 100 µM | CCRF-CEM > 100 µM | HOP-62 > 100 µM | EKVX > 100 µM | Malme-3M > 100 µM | SNB-75 18.5 µM | SR > 100 µM | RXF 393 > 100 µM

O=C1CC(CC(=O)C2CCCCC2=O)C(=O)N1 (stereo unspecified)
inactive: UO-31 > 100 µM | NCI-H226 > 100 µM | SK-MEL-28 > 100 µM | K562 > 100 µM | CCRF-CEM > 100 µM | HOP-62 > 100 µM | A498 > 100 µM | EKVX > 100 µM | Malme-3M > 100 µM | SNB-75 > 100 µM | SR > 100 µM | RXF 393 > 100 µM | CAKI-1 > 100 µM

N#CC1=C(O)NC(O)=C(C#N)C1c1ccc(C2C(C#N)=C(O)NC(O)=C2C#N)cc1
inactive: UO-31 > 100 µM | NCI-H226 > 100 µM | SK-MEL-28 > 100 µM | MOLT-4 94.6 µM | SK-MEL-2 > 100 µM | K562 53.2 µM | CCRF-CEM 45.3 µM | HOP-62 > 100 µM | A498 > 100 µM | EKVX > 100 µM | Malme-3M > 100 µM | SNB-75 > 100 µM | RXF 393 > 100 µM | CAKI-1 > 100 µM

O=C1NC2(CCCC2)C2CCCCC12O (stereo unspecified)
inactive: UO-31 > 100 µM | SK-MEL-28 > 100 µM | MOLT-4 > 100 µM | SK-MEL-2 > 100 µM | K562 > 100 µM | CCRF-CEM > 100 µM | HOP-62 > 100 µM | A498 > 100 µM | EKVX > 100 µM | Malme-3M > 100 µM | SNB-75 > 100 µM | SR > 100 µM | RXF 393 > 100 µM | CAKI-1 > 100 µM

CC1(C)CC(N2CCN(C3CC(C)(C)NC(C)(C)C3)CC2)CC(C)(C)N1
inactive: UO-31 > 100 µM | SK-MEL-28 > 100 µM | MOLT-4 > 100 µM | K562 > 100 µM | CCRF-CEM > 100 µM | HOP-62 > 100 µM | A498 > 100 µM | EKVX > 100 µM | SNB-75 > 100 µM | SR > 100 µM | RXF 393 > 100 µM | CAKI-1 > 100 µM

O=C(/C=C/c1ccc(Cl)c(Cl)c1)c1ccccc1Cl
inactive: UO-31 14.5 µM | NCI-H226 16.6 µM | SK-MEL-28 8.95 µM | MOLT-4 27.7 µM | K562 7.16 µM | CCRF-CEM 6.67 µM | HOP-62 18.7 µM | A498 17 µM | EKVX 17.3 µM | Malme-3M 16.6 µM | SNB-75 9.14 µM | SR 4.42 µM | RXF 393 17.2 µM | CAKI-1 9.89 µM
